Values quoted from earlier work in patent publication US20060110374A1, “Method to accelerate stem cell recruitment and homing” (priority 2004, published 2006).

What was measured:
[1] = patients, intra-coronary injection followed by 2 weeks of subcutaneous administration
EPCs [2] = system: EPCs
EPCs [3] = system: EPCs; remark: listed apart in the source

For “GM-CSF: granulocyte macrophage colony stimulating factor”, the coronary collateral flow [1] is listed as “significant increase”, the “numbers of EPCs” value (EPCs [2]; mice and rabbits) is listed as “Increased numbers” and the “neovascularization with bone marrow-derived cells” value (EPCs [2]; mice, corneal neovascularization model) is listed as “enhanced neovascularization”.

In the case of VEGF, the “time to rise of EPC levels in the bloodstream” value (EPCs [3]; after administration) is given as no more than 24 h and the “mobilization of EPCs into the peripheral circulation” value (EPCs [3]; animal models, exogenous administration) is given as “promotes rapid mobilization”.
